This is an account of results in patent US7358276B2, “2-Oxo-1-pyrrolidine derivatives, processes for preparing them and their uses” (UCB, S.A., priority 2000, dated 2008).

In the first assay the target is T1, Levetiracetam Binding Site (LBS), rat cerebral cortex membranes (Rattus norvegicus, UniProt Q02563).
T1 construct: The crude membrane pellet obtained is resuspended in 50 mmol/l Tris-HCl (pH 7.4); from tissue; host or cells: rat cerebral cortex crude membranes (male Sprague-Dawley)
T1 sequence (Q02563 whole entry): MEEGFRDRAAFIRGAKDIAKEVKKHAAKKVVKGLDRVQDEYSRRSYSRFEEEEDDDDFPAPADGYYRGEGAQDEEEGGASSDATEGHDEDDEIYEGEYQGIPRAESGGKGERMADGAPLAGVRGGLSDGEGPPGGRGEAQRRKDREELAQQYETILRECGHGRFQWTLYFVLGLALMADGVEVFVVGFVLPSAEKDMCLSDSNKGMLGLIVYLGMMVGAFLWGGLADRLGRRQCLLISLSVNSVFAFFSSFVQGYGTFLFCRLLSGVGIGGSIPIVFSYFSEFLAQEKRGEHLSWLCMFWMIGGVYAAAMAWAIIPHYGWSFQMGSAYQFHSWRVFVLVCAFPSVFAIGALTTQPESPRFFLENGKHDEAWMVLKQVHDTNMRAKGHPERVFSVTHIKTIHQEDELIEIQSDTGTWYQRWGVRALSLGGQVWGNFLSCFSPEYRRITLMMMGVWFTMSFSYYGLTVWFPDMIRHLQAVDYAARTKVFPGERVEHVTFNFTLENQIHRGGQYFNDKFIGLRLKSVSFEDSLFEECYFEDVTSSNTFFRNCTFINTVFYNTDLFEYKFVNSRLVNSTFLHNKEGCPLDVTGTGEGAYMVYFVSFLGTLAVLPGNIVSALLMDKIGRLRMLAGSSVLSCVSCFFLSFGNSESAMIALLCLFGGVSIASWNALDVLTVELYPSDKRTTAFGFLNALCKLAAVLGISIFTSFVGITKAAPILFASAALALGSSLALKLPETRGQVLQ
The experiment in a line: LBS binding assay (competitive binding, [3H]-2-[4-(3-azidophenyl)-2-oxo-1-pyrrolidinyl]butanamide). The settings on record: 4° C., 120 min.
`C#CC1CC(=O)N(C(CC)C(N)=O)C1` (stereo not drawn) [Compound 207, 2-(4-ethynyl-2-oxo-1-pyrrolidinyl)butanamide]: the “pKi (affinity for the levetiracetam binding site)” value (shortened to “pKi”) is recorded as “Particular affinity”. Same read-out and setting: then `CC[C@@H](C(N)=O)N1CC(n2cccc2)CC1=O` (single isomer, unassigned) [Compound 223, 4-pyrol-pyrrolidin-2-one], with “Particular affinity”; and `CC[C@@H](C(N)=O)N1CC(c2ccsc2)CC1=O` (stereo partly drawn) [Compound 88], with “Particular affinity”; and `CC[C@@H](C(N)=O)N1CC(C=C(F)F)CC1=O` (stereo partly drawn) [Compound 213, (2S)-2-(2-oxo-4-(2,2-difluorovinyl)-1-pyrrolidinyl)butanamide], with “Particular affinity”. Take `CCC(C(N)=O)N1CC(c2cccc(Cl)c2)CC1=O` (stereo not drawn) [Compound 205, 2-[4-(3-chlorophenyl)-2-oxo-1-pyrrolidinyl]butanamide]: the “pKi” value is “Particular affinity”. With `CCC(C(N)=O)N1CC(c2ccc(Cl)cc2)CC1=O` (stereo not drawn) [Compound 169], the “pKi” value was “Particular affinity”. Consider `CCC(C(N)=O)N1CC(c2ccco2)CC1=O` (stereo not drawn) [Compound 196], for which the “pKi” value is on record as “Particular affinity”.

As to `CC[C@@H](C(N)=O)N1CC(CBr)CC1=O` (stereo partly drawn) [Compound 8, (2S)-2-[4-(bromomethyl)-2-oxo-1-pyrrolidinyl]butanamide], the “pKi” value is reported as “Particular affinity”. As for `CCC(C(N)=O)N1CC(CC2CC2)CC1=O` (stereo not drawn) [Compound 165], the “pKi” value is listed as “Particular affinity”. Same read-out and setting: then `CC[C@@H](C(N)=O)N1CC(CCl)CC1=O` (stereo partly drawn) [Compound 30, (2S)-2-[4-(chloromethyl)-2-oxo-1-pyrrolidinyl]butanamide], with “Particular affinity”. As for “(2S)-2-[4-(iodomethyl)-2-oxo-1-pyrrolidinyl]propanamide [Compound 110]”, the “pKi” value is “Particular affinity”. For the compound `CC[C@@H](C(N)=O)N1CC(CN=C=S)CC1=O` (stereo partly drawn) [Compound 49, (2S)-2-[4-(isothiocyanatomethyl)-2-oxo-1-pyrrolidinyl]butanamide], the “pKi” value is “Particular affinity”. Still for that read-out and setting: then `CC[C@@H](C(N)=O)N1CC(CO[N+](=O)[O-])CC1=O` (stereo partly drawn) [Compound 38, {1-[(1S)-1-(aminocarbonyl)propyl]-5-oxo-3-pyrrolidinyl}methyl Nitrate], with “Particular affinity”; and `CC[C@@H](C(N)=O)N1CC(CC(C)(C)C)CC1=O` (stereo partly drawn) [Compound 149, (2S)-2-(4-neopentyl-2-oxo-1-pyrrolidinyl)butanamide], with “Particular affinity”. On the same count and under the same terms, then `CCCC1CC(=O)N(C(C)C(N)=O)C1` (stereo not drawn) [Compound 119], with “Particular affinity”; and `CC[C@@H](C(N)=O)N1CC(c2cccs2)CC1=O` (stereo partly drawn) [Compound 72, (2S)-2-[2-oxo-4-(2-thienyl)-1-pyrrolidinyl]butanamide], with “Particular affinity”. Still for that read-out and setting: then `CCCCCC1CC(=O)N(C(CC)C(N)=O)C1` (stereo not drawn) [Compound 142], with “Particular affinity”; and `CCC(C(N)=O)N1CC(c2cccc(C)c2)CC1=O` (stereo not drawn) [Compound 174], with “Particular affinity”; and `CCC(C(N)=O)N1CC(c2ccccc2C(F)(F)F)CC1=O` (stereo not drawn) [Compound 171], with “Particular affinity”.

On to `CCC(C(N)=O)N1CC(C=C(C)C)CC1=O` (stereo not drawn) [Compound 163, 2-(2-oxo-4-(2,2-dimethylvinyl)-1-pyrrolidinyl)butanamide], for which the “pKi” value is reported as “Particular affinity”. For the compound `CC[C@@H](C(N)=O)N1CC(COS(=O)(=O)c2ccc(C)cc2)CC1=O` (stereo partly drawn) [Compound 31, {1-[(1S)-1-(aminocarbonyl)propyl]-5-oxo-3-pyrrolidinyl}methyl 4-methylbenzenesulfonate], the “pKi” value is “Particular affinity”. Consider `CCCC1CC(=O)N(C(CCC)C(N)=O)C1` (stereo not drawn) [Compound 304], for which the “pKi” value is listed as “Particular affinity”. For `C=CCC(C(N)=O)N1CC(CCC)CC1=O` (stereo not drawn) [Compound 351], the “pKi” value is recorded as “Particular affinity”. Consider `CC[C@@H](C(N)=O)N1CC(c2ccc(-c3ccccc3)cc2)CC1=O` (stereo partly drawn) [Compound 98], for which the “pKi” value is listed as “Particular affinity”. Same read-out and setting: then `CCC(C(N)=O)N1CC(c2cccc(Cl)c2)CC1=O` (stereo not drawn) [Compound 170], with “Particular affinity”. On the same count and under the same terms, then `CCCC1CC(=O)N(C(CC)C(N)=O)C1` (stereo not drawn) [Compound 127, 2-(2-oxo-4-propyl-1-pyrrolidinyl)butanamide], with “Particular affinity”; and `CCC(C(N)=O)N1CC(c2cccc(Cl)c2)CC1=O` (stereo not drawn) [Compound 204, 2-[4-(3-chlorophenyl)-2-oxo-1-pyrrolidinyl]butanamide], with “Particular affinity”; and `CCCC1CC(=O)N(C(Cc2cscn2)C(N)=O)C1` (stereo not drawn) [Compound 350], with “Particular affinity”. As to `CC[C@@H](C(N)=O)N1CC(CC(C)I)CC1=O` (stereo partly drawn) [Compound 226, (2S)-2-[4-(2-iodopropyl)-2-oxo-1-pyrrolidinyl]butanamide], the “pKi” value is listed as “Particular affinity”. Consider `CCC(C(N)=O)N1CC(c2ccccc2F)CC1=O` (stereo not drawn) [Compound 173], for which the “pKi” value is reported as “Particular affinity”. Consider `CC[C@@H](C(N)=O)N1CC(CC(C)I)CC1=O` (stereo partly drawn) [Compound 225, (2S)-2-[4-(2-iodopropyl)-2-oxo-1-pyrrolidinyl]butanamide], for which the “pKi” value is reported as “Particular affinity”. As to `CCC(C(N)=O)N1CC(CC(F)F)CC1=O` (stereo not drawn) [Compound 157, 2-[4-(2,2-difluoroethyl)-2-oxo-1-pyrrolidinyl]butanamide], the “pKi” value is “Particular affinity”. As to `CCCC1CC(=O)N(C(CC2CC2)C(N)=O)C1` (stereo not drawn) [Compound 306], the “pKi” value is on record as “Particular affinity”. Take `CCC(C(N)=O)N1CC(CS(=O)(=O)c2ccccc2)CC1=O` (stereo not drawn) [Compound 43]: the “pKi” value was “Particular affinity”.

The subject of another assay is audiogenic seizures in sound-susceptible mice. Put plainly: Animal model of sound-susceptible mice (audiogenic seizures). The conditions noted are these: intraperitoneally 60 minutes before induction of audiogenic seizures; doses given in mol/kg. The class given is in vivo. The text has this: The activity of the compounds of formula I, or their pharmaceutically acceptable salts, as anticonvulsants can be determined in the audiogenic seizures model. The objective of this test is to evaluate the anticonvulsant potential of a compound by means of audiogenic seizures induced in sound-susceptible mice, a genetic animal model with reflex seizures. In this model of primary generalised epilepsy, seizures are evoked without electrical or chemical stimulation and the seizure types are, at least in part, similar in their clinical phenomenology to seizures occurring in man (Löscher W. & Schmidt D., Epilepsy Res. (1998), 2, p. 145-181; Buchhalter J. R., Epilepsia (1993), 34, S31-S41). Results obtained with compounds of formula I are indicative of a strong pharmacological effect.
The objective of this test is to evaluate the anticonvulsant potency of a compound in sound-susceptible mice, a genetic animal model with reflex seizures. In this model of primary generalised epilepsy, seizures are evoked without electrical or chemical stimulation and the seizure types are, at least in part, similar in their clinical phenomenology to seizures occuring in man (Löscher W. & Schmidt D., Epilepsy Res. (1998), 2, 145-181; Buchhalter J. R., Epilepsia (1993), 34, S31-S41).
Male or female genetically sound-sensitive mice (14-28 g; N=10), derived from a DBA strain originally selected by Dr. Lehmann of the Laboratory of Acoustic Physiology (Paris) and bred in the UCB Pharma Sector husbandry unit since 1978, are used. The experimental design consisted of several groups, one group receiving the vehicle control and the other groups different doses of the test-compound. The compounds are administered intraperitoneally 60 minutes before the induction of audiogenic seizures.
For testing, the animals are placed in small cages, one mouse per cage, in a sound-attenuated chamber. After a period of orientation of 30 seconds, the acoustic stimulus (90 dB, 10-20 kHz) is delivered for 30 seconds via loudspeakers positioned above each cage. During this interval, the mice are observed and the presence of the 3 phases of the seizure activity namely wild running, clonic and tonic convulsions, is recorded. The proportion of mice protected against wild running, clonic and tonic convulsions, respectively, is calculated.
For active compounds, an ED50 value, i.e. the dose producing 50% protection relative to the control group, together with 95% confidence limits, was calculated using a Probit Analysis (SAS/STAT® Software, version 6.09, PROBIT procedure) of the proportions of protected mice for each of the 3 phases of the seizure activity.
With `CCCCOC(=O)CC(CCC)CN[C@@H](CC)C(N)=O.Cl` (mixture of isomers) [AA 4, butyl 3-({[(1S)-1-(aminocarbonyl)propyl]amino}methyl)hexanoate hydrochloride], the “ED50 (dose producing 50% protection against audiogenic seizures)” value is “Particularly promising activity”. Regarding `CC[C@@H](C(N)=O)N1CC(n2cccc2)CC1=O` (single isomer, unassigned) [Compound 223, 4-pyrol-pyrrolidin-2-one], the “ED50 (dose producing 50% protection against audiogenic seizures)” value was “Particularly promising activity”. Regarding `CC[C@@H](C(N)=O)N1CC(c2ccsc2)CC1=O` (stereo partly drawn) [Compound 88], the “ED50 (dose producing 50% protection against audiogenic seizures)” value is recorded as “Particularly promising activity”. On to `CC[C@@H](C(N)=O)N1CC(C=C(F)F)CC1=O` (stereo partly drawn) [Compound 213, (2S)-2-(2-oxo-4-(2,2-difluorovinyl)-1-pyrrolidinyl)butanamide], for which the “ED50 (dose producing 50% protection against audiogenic seizures)” value is recorded as “Particularly promising activity”. On to `CCC(C(N)=O)N1CC(c2ccco2)CC1=O` (stereo not drawn) [Compound 196], for which the “ED50 (dose producing 50% protection against audiogenic seizures)” value was “Particularly promising activity”. Still for that read-out and setting: then `CCC(C(N)=O)N1CC(CC2CC2)CC1=O` (stereo not drawn) [Compound 165], with “Particularly promising activity”.

For `CCCC(CN[C@@H](CC)C(N)=O)CC(=O)OCC.Cl` (stereo partly drawn) [AA 2, ethyl 3-({[(1S)-1-(aminocarbonyl)propyl]amino}methyl)hexanoate hydrochloride], the “ED50 (dose producing 50% protection against audiogenic seizures)” value was “Particularly promising activity”.

Turning to “(2S)-2-[4-(iodomethyl)-2-oxo-1-pyrrolidinyl]propanamide [Compound 110]”, the “ED50 (dose producing 50% protection against audiogenic seizures)” value was “Particularly promising activity”. `CCCC(CN[C@@H](CC)C(N)=O)CC(=O)OC(C)C.Cl` (mixture of isomers) [AA 5, isopropyl 3-({[(1S)-1-(aminocarbonyl)propyl]amino}methyl)hexanoate hydrochloride]: the “ED50 (dose producing 50% protection against audiogenic seizures)” value is “Particularly promising activity”. As to `CCCC(CN[C@@H](CC)C(N)=O)CC(=O)OCC.Cl` (stereo partly drawn) [AA 1, ethyl 3-({[(1S)-1-(aminocarbonyl)propyl]amino}methyl)hexanoate hydrochloride], the “ED50 (dose producing 50% protection against audiogenic seizures)” value is given as “Particularly promising activity”. The same measure, in the same setting: then `CCCC(CN[C@@H](CC)C(N)=O)CC(=O)OCCC12CC3CC(CC(C3)C1)C2.Cl` (mixture of isomers) [AA 3, 2-(1-adamantyl)ethyl 3-({[(1S)-1-(aminocarbonyl)propyl]amino}methyl)hexanoate hydrochloride], with “Particularly promising activity”.
